Laboratory results: ChEMBL document CHEMBL3272231, “beta-Adrenergic blocking agents. 16. 1-(Acylaminomethyl-, ureidomethyl-, and ureidoethylphenoxy)-3-amino-2-propanols” (1977)

Legend:
Format in all cases: functional
Felis catus [1] = assay: In vivo antagonist activity at beta-1 adrenergic receptor in cat assessed as inhibition of isoproterenol-induced tachycardia administered as infusion for 30 mins by cardiotachometric analysis; settings: 0.5 h
Felis catus [2] = assay: In vivo antagonist activity at beta-2 adrenergic receptor in cat assessed as inhibition of vasodepressor response administered as infusion for 30 mins relative to control
Rattus norvegicus = assay: Partial agonist activity at beta adrenergic receptor in catecholamine-depleted rat assessed as change in heart rate at 2.5 mg/kg, iv

Row | Compound | ED50 (Felis catus [1]) [mg/kg] | inhibition (INH) (Felis catus [2]) [%] | Activity (Rattus norvegicus) [bpm]
1 | CC(=O)NCc1cccc(OCC(O)CNC(C)C)c1 (stereo unspecified) | 0.383 | 83 | –
2 | CCCNC(=O)NCCc1ccc(OCC(O)CNC(C)C)cc1 (stereo unspecified) | 0.065 | 19 | –
3 | CCCNC(=O)NCCc1ccc(OCC(O)CNC(C)(C)C)cc1 (stereo unspecified) | 0.266 | 27 | –
4 | CCCNC(=O)NCCc1ccc(OCC(O)CNC(C)C)c(OC)c1 (stereo unspecified) | 0.867 | 6 | –
5 | CCCCNC(=O)NCCc1ccc(OCC(O)CNC(C)C)cc1 (stereo unspecified) | 0.515 | 0 | –
6 | CC(=O)NCc1ccc(OCC(O)CNC(C)C)cc1 (stereo unspecified) | 0.142 | 0 | 2
7 | CC(=O)NCc1ccc(OCC(O)CNC(C)(C)C)cc1 (stereo unspecified) | 0.21 | 32 | -7
8 | CC(=O)NCc1ccc(OCC(O)CNC(C)(C)C)c(Cl)c1 (stereo unspecified) | 0.021 | 30 | -30
9 | COc1ccc(CCNCC(O)COc2ccc(CNC(C)=O)cc2Cl)c(OC)c1 (stereo unspecified) | 1.5 | 17 | –
10 | CC(=O)NCc1ccc(OCC(O)CNC(C)C)c(Br)c1 (stereo unspecified) | 0.083 | 5 | -17
11 | CCCc1cc(CNC(C)=O)ccc1OCC(O)CNC(C)C (stereo unspecified) | 0.04 | 51 | -17
12 | C=CCc1cc(CNC(C)=O)ccc1OCC(O)CNC(C)C (stereo unspecified) | 0.035 | 61 | -16
13 | COc1cc(CNC(C)=O)ccc1OCC(O)CNC(C)C (stereo unspecified) | 0.312 | 5 | -9
14 | COc1cc(CNC(C)=O)ccc1OCC(O)CNC(C)(C)C (stereo unspecified) | 0.045 | 70 | -16
15 | CCC(=O)NCc1ccc(OCC(O)CNC(C)C)cc1 (stereo unspecified) | 0.658 | 16 | -6
16 | CCC(=O)NCc1ccc(OCC(O)CNC(C)C)c(Cl)c1 (stereo unspecified) | 0.63 | 83 | -15
17 | CCC(=O)NCc1ccc(OCC(O)CNC(C)C)c(Br)c1 (stereo unspecified) | 0.269 | 7 | -15
18 | CCC(=O)NCc1ccc(OCC(O)CNC(C)(C)C)c(Br)c1 (stereo unspecified) | 0.1 | 21 | 0
19 | CCCc1cc(CNC(=O)CC)ccc1OCC(O)CNC(C)C (stereo unspecified) | 0.163 | 34 | 4
20 | C=CCc1cc(CNC(=O)CC)ccc1OCC(O)CNC(C)C (stereo unspecified) | 0.098 | 3 | -10
21 | CCC(=O)NCc1ccc(OCC(O)CNC(C)C)c(OC)c1 (stereo unspecified) | 0.449 | 37 | -19
22 | CCC(=O)NCc1ccc(OCC(O)CNC(C)(C)C)c(OC)c1 (stereo unspecified) | 1.09 | 72 | -12
23 | CCOc1cc(CNC(=O)CC)ccc1OCC(O)CNC(C)C (stereo unspecified) | 0.331 | 48 | -10
24 | CCOc1cc(CNC(=O)CC)ccc1OCC(O)CNC(C)(C)C (stereo unspecified) | 1.41 | 68 | –

Row | Compound | ED50 (Felis catus [1]) [mg/kg] | inhibition (INH) (Felis catus [2]) [%] | Activity (Rattus norvegicus) [bpm]
25 | CCCC(=O)NCc1ccc(OCC(O)CNC(C)C)cc1 (stereo unspecified) | 1.4 | 51 | –
26 | CCCC(=O)NCc1ccc(OCC(O)CNC(C)(C)C)c(OC)c1 (stereo unspecified) | 0.282 | 17 | -10
27 | CC(C)NCC(O)COc1ccc(CNC(=O)C(C)C)cc1Br (stereo unspecified) | 1.1 | 43 | -16
28 | COc1cc(CNC(=O)C(C)C)ccc1OCC(O)CNC(C)C (stereo unspecified) | 1.14 | 3 | -16
29 | CCCCCCC(=O)NCc1ccc(OCC(O)CNC(C)(C)C)c(Cl)c1 (stereo unspecified) | 1.42 | 40 | –
30 | CC(C)NCC(O)COc1ccccc1CNC(=O)c1ccc(Cl)cc1 (stereo unspecified) | 0.304 | 45 | 14
31 | CC(C)NCC(O)COc1ccc(CNC(N)=O)cc1 (stereo unspecified) | 0.117 | 48 | –
32 | CC(C)NCC(O)COc1ccc(CNC(N)=O)cc1Br (stereo unspecified) | 0.106 | 25 | –
33 | COc1cc(CNC(N)=O)ccc1OCC(O)CNC(C)C (stereo unspecified) | 0.072 | 0 | –
34 | COc1cc(CNC(N)=O)ccc1OCC(O)CNC(C)(C)C (stereo unspecified) | 0.075 | 68 | –
35 | CNC(=O)NCc1ccc(OCC(O)CNC(C)C)c(Cl)c1 (stereo unspecified) | 0.381 | 21 | –
36 | CNC(=O)NCc1ccc(OCC(O)CNC(C)C)c(Br)c1 (stereo unspecified) | 0.572 | 0 | –
37 | CNC(=O)NCc1ccc(OCC(O)CNC(C)C)c(OC)c1 (stereo unspecified) | 0.794 | 87 | –
38 | CCNC(=O)NCc1ccc(OCC(O)CNC(C)C)c(Cl)c1 (stereo unspecified) | 1.76 | 63 | –
39 | CC(C)NCC(O)COc1ccc(CCNC(N)=O)cc1 (stereo unspecified) | 0.101 | 47 | –
40 | CNC(=O)NCCc1ccc(OCC(O)CNC(C)C)cc1 (stereo unspecified) | 0.193 | – | –
41 | CNC(=O)NCCc1ccc(OCC(O)CNC(C)C)c(Br)c1 (stereo unspecified) | 0.88 | 97 | –
42 | CCNC(=O)NCCc1ccc(OCC(O)CNC(C)C)cc1 (stereo unspecified) | 1.75 | 51 | –
43 | CC(=O)NCc1ccccc1OCC(O)CNC(C)(C)C (stereo unspecified) | 0.13 | 63 | 41
44 | CCC(=O)NCc1ccccc1OCC(O)CNC(C)C (stereo unspecified) | 0.27 | 0 | 44
45 | CCCCCCC(=O)NCc1ccccc1OCC(O)CNC(C)C (stereo unspecified) | 1.16 | 19 | –
46 | CC(=O)NCc1cc(C)ccc1OCC(O)CNC(C)C (stereo unspecified) | 0.381 | 80 | 5
47 | CC(=O)Nc1ccc(OCC(O)CNC(C)C)cc1 (stereo unspecified) [PRACTOLOL] | – | 8 | –
